Source: US20230085307A1, “PYRIDAZINONE COMPOUND AND HERBICIDE” (NISSAN CHEMICAL CORPORATION, priority 2019, published 2023)

Legend:
redroot pigweed [1] = experiment: Test Example 5: herbicidal effect by foliage application, plastic box (Table 20, symbol N); format: in vivo, redroot pigweed (Amaranthus retroflexus); details: foliage application, AAH 320 g/ha, three weeks after application
In short: (§1)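 Foliar spray test: emulsion formulation diluted in water to a set application rate, sprayed onto 14-day-old plants raised in diluvial soil at 25° C to 30° C under glass. Both herbicidal effect and crop effect rated visually three weeks later.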

persian speedwell [2] = experiment: Test Example 5: herbicidal effect by foliage application, plastic box (Table 20, symbol R); format: in vivo, Persian speedwell (Veronica persica); details: foliage application, AAH 320 g/ha, three weeks after application
In short: as §1

Italian ryegrass [3] = experiment: Test Example 4: herbicidal effect by soil treatment (Table 19, symbol K); format: in vivo, Italian ryegrass (Lolium multiflorum); details: amount of applied herbicide 320 g/ha
In short: (§2)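 Herbicidal effect was rated 3 weeks after treatment, using the scoring criteria of an earlier test. The compound, formulated as an emulsion and diluted in water to a set herbicide amount, had been sprayed uniformly on soil over freshly sown seeds. Growth took place in a greenhouse at 25° C. to 30° C.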

barnyard grass [4] = experiment: Test Example 3: herbicidal effect by foliage application, Wagner pot (Table 18, symbol H); format: in vivo, barnyard grass (Echinochloa crus-galli); details: 320 g/ha
In short: (§3)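 Plants were sown in alluvial soil held under 0.1–0.5 cm standing water and grown 14 days in a greenhouse at 25–30 °C. An emulsifiable formulation, water-diluted to the set dose, was then sprayed onto the foliage, and effects were scored three weeks later using previously defined criteria.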

Italian ryegrass [5] = experiment: Test Example 5: herbicidal effect by foliage application, plastic box (Table 20, symbol K); format: in vivo, Italian ryegrass (Lolium multiflorum); details: foliage application, AAH 320 g/ha, three weeks after application
In short: as §1

wild oat [6] = experiment: Test Example 4: herbicidal effect by soil treatment (Table 19, symbol I); format: in vivo, wild oat (Avena fatua); details: amount of applied herbicide 320 g/ha
In short: as §2

blackgrass [7] = experiment: Test Example 5: herbicidal effect by foliage application, plastic box (Table 20, symbol J); format: in vivo, blackgrass (Alopecurus myosuroides); details: foliage application, AAH 320 g/ha, three weeks after application
In short: as §1

green foxtail [8] = experiment: Test Example 4: herbicidal effect by soil treatment (Table 19, symbol G); format: in vivo, green foxtail (Setaria viridis); details: amount of applied herbicide 320 g/ha
In short: as §2

southern crabgrass [9] = experiment: Test Example 4: herbicidal effect by soil treatment (Table 19, symbol F); format: in vivo, southern crabgrass (Digitaria ciliaris); details: amount of applied herbicide 320 g/ha
In short: as §2

barnyard grass [10] = experiment: Test Example 4: herbicidal effect by soil treatment (Table 19, symbol H); format: in vivo, barnyard grass (Echinochloa crus-galli); details: amount of applied herbicide 320 g/ha
In short: as §2

chickweed [11] = experiment: Test Example 5: herbicidal effect by foliage application, plastic box (Table 20, symbol P); format: in vivo, common chickweed (Stellaria media); details: foliage application, AAH 320 g/ha, three weeks after application
In short: as §1

green foxtail [12] = experiment: Test Example 5: herbicidal effect by foliage application, plastic box (Table 20, symbol G); format: in vivo, green foxtail (Setaria viridis); details: foliage application, AAH 320 g/ha, three weeks after application
In short: as §1

velvetleaf [13] = experiment: Test Example 5: herbicidal effect by foliage application, plastic box (Table 20, symbol M); format: in vivo, velvetleaf (Abutilon theophrasti); details: foliage application, AAH 320 g/ha, three weeks after application
In short: as §1

lambsquarters [14] = experiment: Test Example 4: herbicidal effect by soil treatment (Table 19, symbol O); format: in vivo, lambsquarters (Chenopodium album); details: amount of applied herbicide 320 g/ha
In short: as §2

blackgrass [15] = experiment: Test Example 4: herbicidal effect by soil treatment (Table 19, symbol J); format: in vivo, blackgrass (Alopecurus myosuroides); details: amount of applied herbicide 320 g/ha
In short: as §2

velvetleaf [16] = experiment: Test Example 4: herbicidal effect by soil treatment (Table 19, symbol M); format: in vivo, velvetleaf (Abutilon theophrasti); details: amount of applied herbicide 320 g/ha
In short: as §2

lambsquarters [17] = experiment: Test Example 5: herbicidal effect by foliage application, plastic box (Table 20, symbol O); format: in vivo, lambsquarters (Chenopodium album); details: foliage application, AAH 320 g/ha, three weeks after application
In short: as §1

Chinese sprangletop = experiment: Test Example 3: herbicidal effect by foliage application, Wagner pot (Table 18, symbol D); format: in vivo, chinese sprangletop (Leptochloa chinensis); details: 320 g/ha
In short: as §3

southern crabgrass [18] = experiment: Test Example 5: herbicidal effect by foliage application, plastic box (Table 20, symbol F); format: in vivo, southern crabgrass (Digitaria ciliaris); details: foliage application, AAH 320 g/ha, three weeks after application
In short: as §1

persian speedwell [19] = experiment: Test Example 4: herbicidal effect by soil treatment (Table 19, symbol R); format: in vivo, Persian speedwell (Veronica persica); details: amount of applied herbicide 320 g/ha
In short: as §2

wild oat [20] = experiment: Test Example 5: herbicidal effect by foliage application, plastic box (Table 20, symbol I); format: in vivo, wild oat (Avena fatua); details: foliage application, AAH 320 g/ha, three weeks after application
In short: as §1

chickweed [21] = experiment: Test Example 4: herbicidal effect by soil treatment (Table 19, symbol P); format: in vivo, common chickweed (Stellaria media); details: amount of applied herbicide 320 g/ha
In short: as §2

false cleavers = experiment: Test Example 4: herbicidal effect by soil treatment (Table 19, symbol Q); format: in vivo, false cleavers (Galium spurium); details: amount of applied herbicide 320 g/ha
In short: as §2

redroot pigweed [22] = experiment: Test Example 4: herbicidal effect by soil treatment (Table 19, symbol N); format: in vivo, redroot pigweed (Amaranthus retroflexus); details: amount of applied herbicide 320 g/ha
In short: as §2

barnyard grass [23] = experiment: Test Example 5: herbicidal effect by foliage application, plastic box (Table 20, symbol H); format: in vivo, barnyard grass (Echinochloa crus-galli); details: foliage application, AAH 320 g/ha, three weeks after application
In short: as §1

rice flat sedge = experiment: Test Example 3: herbicidal effect by foliage application, Wagner pot (Table 18, symbol E); format: in vivo, rice flat sedge (Cyperus iria); details: 320 g/ha
In short: as §3

windgrass [24] = experiment: Test Example 4: herbicidal effect by soil treatment (Table 19, symbol L); format: in vivo, windgrass (Apera spica-venti); details: amount of applied herbicide 320 g/ha
In short: as §2

windgrass [25] = experiment: Test Example 5: herbicidal effect by foliage application, plastic box (Table 20, symbol L); format: in vivo, windgrass (Apera spica-venti); details: foliage application, AAH 320 g/ha, three weeks after application
In short: as §1

**Q.** With `CCCC(=O)Oc1c(C)nn(C)c(=O)c1-c1c(-n2cc(Cl)cn2)sc2ccccc12` [Compound No. 1-098, 1,3-dimethyl-6-oxo-5-(2-(4-chloro-1H-pyrazol-1-yl)benzo[b]thiophen-3-yl)-1,6-dihydropyridazin-4-yl=(n-butyrate)] as the compound, how does the “N: redroot pigweed, herbicidal effect” value (redroot pigweed [1]) read?
**A.** Its value is 5 (Herbicidal rate of 90% or more (almost completely withered)).

**Q.** And the “R: persian speedwell, herbicidal effect” value (persian speedwell [2])?
**A.** The value was 3 (Herbicidal rate of 40% or more and less than 70%).

**Q.** And the “herbicidal effect rating, K: Italian ryegrass” value (Italian ryegrass [3])?
**A.** The value was 0 (Herbicidal rate of 5% or less (almost no effect)).

**Q.** And the “herbicidal effect on H (barnyard grass), rating 0-5” value (barnyard grass [4])?
**A.** The value was 0 (Herbicidal rate of 5% or less (almost no effect)).

**Q.** And the “K: Italian ryegrass, herbicidal effect” value (Italian ryegrass [5])?
**A.** The value was 2 (Herbicidal rate of 20% or more and less than 40%).

**Q.** And the “herbicidal effect rating, I: wild oat” value (wild oat [6])?
**A.** The value was 0 (Herbicidal rate of 5% or less (almost no effect)).

**Q.** And the “J: blackgrass, herbicidal effect” value (blackgrass [7])?
**A.** Its value is 0 (Herbicidal rate of 5% or less (almost no effect)).

**Q.** And the “herbicidal effect rating, G: green foxtail” value (green foxtail [8])?
**A.** The value was 0 (Herbicidal rate of 5% or less (almost no effect)).

**Q.** And the “herbicidal effect rating, F: southern crabgrass” value (southern crabgrass [9])?
**A.** Its value is 0 (Herbicidal rate of 5% or less (almost no effect)).

**Q.** What about the “herbicidal effect rating, H: barnyard grass” value (barnyard grass [10]) of the same compound?
**A.** Its value is 0 (Herbicidal rate of 5% or less (almost no effect)).

**Q.** What about the “P: chickweed, herbicidal effect” value (chickweed [11]) of the same compound?
**A.** Its value is 5 (Herbicidal rate of 90% or more (almost completely withered)).

**Q.** And the “G: green foxtail, herbicidal effect” value (green foxtail [12])?
**A.** The value was 2 (Herbicidal rate of 20% or more and less than 40%).

**Q.** And the “M: velvetleaf, herbicidal effect” value (velvetleaf [13])?
**A.** Its value is 0 (Herbicidal rate of 5% or less (almost no effect)).

**Q.** What about the “herbicidal effect rating, O: lambsquarters” value (lambsquarters [14]) of the same compound?
**A.** Its value is 4 (Herbicidal rate of 70% or more and less than 90%).

**Q.** What about the “herbicidal effect rating, J: blackgrass” value (blackgrass [15]) of the same compound?
**A.** The value was 0 (Herbicidal rate of 5% or less (almost no effect)).

**Q.** And the “herbicidal effect rating, M: velvetleaf” value (velvetleaf [16])?
**A.** Its value is 3 (Herbicidal rate of 40% or more and less than 70%).

**Q.** And the “O: lambsquarters, herbicidal effect” value (lambsquarters [17])?
**A.** The value was 5 (Herbicidal rate of 90% or more (almost completely withered)).

**Q.** And the “herbicidal effect on D (Chinese sprangletop), rating 0-5” value (Chinese sprangletop)?
**A.** The value was 0 (Herbicidal rate of 5% or less (almost no effect)).

**Q.** And the “F: southern crabgrass, herbicidal effect” value (southern crabgrass [18])?
**A.** The value was 0 (Herbicidal rate of 5% or less (almost no effect)).

**Q.** And the “herbicidal effect rating, R: persian speedwell” value (persian speedwell [19])?
**A.** Its value is 0 (Herbicidal rate of 5% or less (almost no effect)).

**Q.** And the “I: wild oat, herbicidal effect” value (wild oat [20])?
**A.** The value was 0 (Herbicidal rate of 5% or less (almost no effect)).

**Q.** What about the “herbicidal effect rating, P: chickweed” value (chickweed [21]) of the same compound?
**A.** Its value is 3 (Herbicidal rate of 40% or more and less than 70%).

**Q.** And the “herbicidal effect rating, Q: false cleavers” value (false cleavers)?
**A.** Its value is 0 (Herbicidal rate of 5% or less (almost no effect)).

**Q.** And the “herbicidal effect rating, N: redroot pigweed” value (redroot pigweed [22])?
**A.** The value was 0 (Herbicidal rate of 5% or less (almost no effect)).

**Q.** And the “H: barnyard grass, herbicidal effect” value (barnyard grass [23])?
**A.** The value was 3 (Herbicidal rate of 40% or more and less than 70%).

**Q.** What about the “herbicidal effect on E (rice flat sedge), rating 0-5” value (rice flat sedge) of the same compound?
**A.** Its value is 4 (Herbicidal rate of 70% or more and less than 90%).

**Q.** What about the “herbicidal effect rating, L: windgrass” value (windgrass [24]) of the same compound?
**A.** Its value is 0 (Herbicidal rate of 5% or less (almost no effect)).

**Q.** And the “L: windgrass, herbicidal effect” value (windgrass [25])?
**A.** The value was 0 (Herbicidal rate of 5% or less (almost no effect)).
